# Measured values: patent US9730940B2, “Purine inhibitors of human phosphatidylinositol 3-kinase delta” (priority 2012, dated 2017)
# Biological target: PI3K-alpha (Homo sapiens (Human), UniProt P42336)
# Assay: HTRF PI3K biochemical assay, alpha isoform
# Conditions: ratio PI3K-alpha IC50 value/PI3K-delta IC50 value
# Sequence of PI3K-alpha (P42336 whole entry, looked up, canonical isoform): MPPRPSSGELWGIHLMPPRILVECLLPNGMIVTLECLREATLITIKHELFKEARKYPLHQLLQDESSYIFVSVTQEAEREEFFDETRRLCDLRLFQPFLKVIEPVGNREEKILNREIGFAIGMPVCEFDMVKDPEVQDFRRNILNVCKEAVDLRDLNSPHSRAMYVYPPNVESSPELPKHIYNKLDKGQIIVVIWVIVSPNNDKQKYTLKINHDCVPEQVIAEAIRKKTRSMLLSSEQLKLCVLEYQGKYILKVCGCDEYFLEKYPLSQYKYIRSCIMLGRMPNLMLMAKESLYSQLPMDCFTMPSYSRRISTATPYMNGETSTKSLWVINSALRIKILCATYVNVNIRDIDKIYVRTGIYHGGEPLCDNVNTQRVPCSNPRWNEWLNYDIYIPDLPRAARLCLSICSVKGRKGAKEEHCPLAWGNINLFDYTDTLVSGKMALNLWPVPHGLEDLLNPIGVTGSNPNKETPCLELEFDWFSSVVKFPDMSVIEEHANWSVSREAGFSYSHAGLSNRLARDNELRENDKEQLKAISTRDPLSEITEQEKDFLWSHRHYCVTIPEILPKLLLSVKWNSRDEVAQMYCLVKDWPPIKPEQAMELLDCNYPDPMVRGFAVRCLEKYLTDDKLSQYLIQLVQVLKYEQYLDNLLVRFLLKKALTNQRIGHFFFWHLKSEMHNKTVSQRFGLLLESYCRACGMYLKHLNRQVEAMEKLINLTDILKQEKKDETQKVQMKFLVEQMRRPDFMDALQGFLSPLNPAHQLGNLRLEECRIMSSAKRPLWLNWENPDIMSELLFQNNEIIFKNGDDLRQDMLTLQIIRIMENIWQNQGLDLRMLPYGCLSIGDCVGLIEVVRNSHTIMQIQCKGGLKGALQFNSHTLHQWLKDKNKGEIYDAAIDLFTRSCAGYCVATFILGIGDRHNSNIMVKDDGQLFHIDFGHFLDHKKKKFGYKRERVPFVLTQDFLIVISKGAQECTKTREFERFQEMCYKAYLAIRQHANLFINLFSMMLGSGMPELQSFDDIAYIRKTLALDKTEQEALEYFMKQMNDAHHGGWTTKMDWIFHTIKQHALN
# Sequence of PI3K-alpha (P27986 whole entry partner, looked up, canonical isoform): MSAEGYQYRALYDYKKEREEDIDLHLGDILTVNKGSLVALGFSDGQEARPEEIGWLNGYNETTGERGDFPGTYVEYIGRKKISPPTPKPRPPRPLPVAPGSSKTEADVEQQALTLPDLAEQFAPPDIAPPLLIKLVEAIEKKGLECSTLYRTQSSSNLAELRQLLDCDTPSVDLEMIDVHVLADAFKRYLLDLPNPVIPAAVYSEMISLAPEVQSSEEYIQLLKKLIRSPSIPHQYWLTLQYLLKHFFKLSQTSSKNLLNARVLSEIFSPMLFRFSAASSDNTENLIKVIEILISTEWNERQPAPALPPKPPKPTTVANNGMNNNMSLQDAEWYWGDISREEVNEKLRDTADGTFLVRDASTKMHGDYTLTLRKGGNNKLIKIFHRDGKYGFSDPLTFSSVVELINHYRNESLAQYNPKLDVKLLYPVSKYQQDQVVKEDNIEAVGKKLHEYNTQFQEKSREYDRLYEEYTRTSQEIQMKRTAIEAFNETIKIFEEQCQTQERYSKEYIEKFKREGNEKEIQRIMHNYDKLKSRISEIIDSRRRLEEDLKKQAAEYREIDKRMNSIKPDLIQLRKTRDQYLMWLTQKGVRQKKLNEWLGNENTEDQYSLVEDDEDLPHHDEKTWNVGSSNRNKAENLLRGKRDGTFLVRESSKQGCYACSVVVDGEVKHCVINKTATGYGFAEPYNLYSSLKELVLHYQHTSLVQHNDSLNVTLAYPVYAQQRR
row,Compound,Relative Selectivity versus PI3Kalpha
1,"CCn1c(-c2cnc(C)nc2)nc2c(O[C@H]3CCN(C(=O)OCCN(C)C)C3)ncnc21 [Compound 1-49, 2-(dimethylamino)ethyl (3S)-3-{[9-ethyl-8-(2-methylpyrimidin-5-yl)-9H-purin-6-yl]oxy}pyrrolidine-1-carboxylate]",>10
2,"CCn1c(-c2ccc(OC(F)F)nc2)nc2c(O[C@H]3CCN(C(=O)OC(C)(C)C)C3)ncnc21 [Compound 1-51, tert-butyl (3S)-3-({8-[6-(difluoromethoxy)pyridin-3-yl]-9-ethyl-9H-purin-6-yl}oxy)pyrrolidine-1-carboxylate]",>10
3,"CCn1ncc(-c2nc3c(OC4CCN(C(=O)c5ccccc5)C4)ncnc3n2C)c1C (stereo not shown) [Compound 2-1, 8-(1-ethyl-5-methyl-1H-pyrazol-4-yl)-9-methyl-6-{[1-(phenylcarbonyl)pyrrolidin-3-yl]oxy}-9H-purine]",>10
4,"CCn1ncc(-c2nc3c(OC4CCN(C(=O)C5CCCC5)C4)ncnc3n2C)c1C (stereo not shown) [Compound 2-2, 6-{[1-(cyclopentylcarbonyl)pyrrolidin-3-yl]oxy}-8-(1-ethyl-5-methyl-1H-pyrazol-4-yl)-9-methyl-9H-purine]",>10
5,"CCn1ncc(-c2nc3c(OC4CCN(C(=O)c5ccc6ccccc6c5)C4)ncnc3n2C)c1C (stereo not shown) [Compound 2-3, 8-(1-ethyl-5-methyl-1H-pyrazol-4-yl)-9-methyl-6-{[1-(naphthalen-2-ylcarbonyl)pyrrolidin-3-yl]oxy}-9H-purine]",>10
6,"CCn1ncc(-c2nc3c(OC4CCN(C(=O)C5CCCCC5)C4)ncnc3n2C)c1C (stereo not shown) [Compound 2-4, 6-{[1-(cyclohexylcarbonyl)pyrrolidin-3-yl]oxy}-8-(1-ethyl-5-methyl-1H-pyrazol-4-yl)-9-methyl-9H-purine]",>10
7,"CCn1ncc(-c2nc3c(OC4CCN(C(=O)COC)C4)ncnc3n2C)c1C (stereo not shown) [Compound 2-5, 8-(1-ethyl-5-methyl-1H-pyrazol-4-yl)-6-{[1-(methoxyacetyl)pyrrolidin-3-yl]oxy}-9-methyl-9H-purine]",>10
8,"CCn1ncc(-c2nc3c(OC4CCN(C(=O)CC5CCOCC5)C4)ncnc3n2C)c1C (stereo not shown) [Compound 2-6, 8-(1-ethyl-5-methyl-1H-pyrazol-4-yl)-9-methyl-6-{[1-(tetrahydro-2H-pyran-4-ylacetyl)pyrrolidin-3-yl]oxy}-9H-purine]",>10
9,"CCn1ncc(-c2nc3c(OC4CCN(C(=O)c5cnco5)C4)ncnc3n2C)c1C (stereo not shown) [Compound 2-7, 8-(1-ethyl-5-methyl-1H-pyrazol-4-yl)-9-methyl-6-{[1-(1,3-oxazol-5-ylcarbonyl)pyrrolidin-3-yl]oxy}-9H-purine]",>10
10,"CCn1ncc(-c2nc3c(O[C@H]4CCN(C(=O)C5CCOCC5)C4)ncnc3n2C)c1C [Compound 2-8, (S)-(3-((8-(1-ethyl-5-methyl-1H-pyrazol-4-yl)-9-methyl-9H-purin-6-yl)oxy)pyrrolidin-1-yl)(tetrahydro-2H-pyran-4-yl)methanone]",>10
11,"CCn1ncc(-c2nc3c(O[C@@H]4CCN(C(=O)C5CCOCC5)C4)ncnc3n2C)c1C [Compound 2-9, (R)-(3-((8-(1-ethyl-5-methyl-1H-pyrazol-4-yl)-9-methyl-9H-purin-6-yl)oxy)pyrrolidin-1-yl)(tetrahydro-2H-pyran-4-yl)methanone]",3
12,"CCn1ncc(-c2nc3c(O[C@H]4CCN(C(=O)C5(C)CCOCC5)C4)ncnc3n2C)c1C [Compound 2-10, 8-(1-ethyl-5-methyl-1H-pyrazol-4-yl)-9-methyl-6-({(3S)-1-[(4-methyltetrahydro-2H-pyran-4-yl)carbonyl]pyrrolidin-3-yl}oxy)-9H-purine]",>10
13,"CCn1ncc(-c2nc3c(OC4CCN(C(=O)C5CCOCC5)CC4)ncnc3n2C)c1C [Compound 2-11, (4-((8-(1-ethyl-5-methyl-1H-pyrazol-4-yl)-9-methyl-9H-purin-6-yl)oxy)piperidin-1-yl)(tetrahydro-2H-pyran-4-yl)methanone]",2
